Test system: ER-alpha MCF7
Assay: ER-alpha MCF7 HCS EC50; stated as measured by in vitro cell proliferation assays of Examples 902 and 903
Type: cell-based
Conditions: Homo sapiens, MCF7, MCF7 cells; Table 2
Method in brief: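 MCF7 cells seeded 1000-2000 cells/well for 16 h, then treated with nine-point 1:2 DMSO dilution series in quadruplicate at 37 °C, 5% CO2 for 4 days. Viable cells quantified by CellTiter-Glo ATP luminescence; EC50 calculated. Controls: fulvestrant at final 100 nM, DMSO 0.2% v/v.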

Structure (SMILES)	EC50 [nM]
C[C@H](CN1[C@H](c2c(F)cc(OCCN3CC(CF)C3)cc2F)c2[nH]c3ccccc3c2C[C@H]1C)C(N)=O [Example 347, (R)-3-((1R,3R)-1-(2,6-difluoro-4-(2-(3-(fluoromethyl)azetidin-1-yl)ethoxy)phenyl)-3-methyl-1,3,4,9-tetrahydro-2H-pyrido[3,4-b]indol-2-yl)-2-methylpropanamide]	14
C[C@H](CN1[C@H](c2c(F)cc(OC3CN(CCCF)C3)cc2F)c2[nH]c3ccccc3c2C[C@H]1C)C(=O)O [Example 348, (R)-3-((1R,3R)-1-(2,6-difluoro-4-((1-(3-fluoropropyl)azetidin-3-yl)oxy)phenyl)-3-methyl-1,3,4,9-tetrahydro-2H-pyrido[3,4-b]indol-2-yl)-2-methylpropanoic acid]	1
C[C@@H]1Cc2c([nH]c3ccccc23)[C@@H](c2c(F)cc(OC3CN(CCCF)C3)cc2F)N1C[C@H](C)C(=O)O [Example 349, (S)-3-((1R,3R)-1-(2,6-difluoro-4-((1-(3-fluoropropyl)azetidin-3-yl)oxy)phenyl)-3-methyl-1,3,4,9-tetrahydro-2H-pyrido[3,4-b]indol-2-yl)-2-methylpropanoic acid]	2.03
CC(CN1C(C)Cc2c([nH]c3ccccc23)C1c1c(F)cc(OC2CN(CCCF)C2)cc1F)C(=O)O (stereo not shown) [Example 351, 3-[1-[2,6-difluoro-4-[1-(3-fluoropropyl)azetidin-3-yl]oxy-phenyl]-3-methyl-1,3,4,9-tetrahydropyrido[3,4-b]indol-2-yl]-2-methyl-propanoic acid]	33
C[C@@H]1Cc2c([nH]c3ccccc23)[C@@H](c2c(F)cc(NCCN3CC(CF)C3)cc2F)N1C[C@@](C)(F)CO [Example 352, (R)-3-((1R,3R)-1-(2,6-difluoro-4-((2-(3-(fluoromethyl)azetidin-1-yl)ethyl)amino)phenyl)-3-methyl-1,3,4,9-tetrahydro-2H-pyrido[3,4-b]indol-2-yl)-2-fluoro-2-methylpropan-1-ol]	0.685
C[C@@H]1Cc2c([nH]c3ccccc23)[C@@H](c2c(F)cc(NCCN3CC(CF)C3)cc2F)N1C[C@](C)(F)CO [Example 353, (S)-3-((1R,3R)-1-(2,6-difluoro-4-((2-(3-(fluoromethyl)azetidin-1-yl)ethyl)amino)phenyl)-3-methyl-1,3,4,9-tetrahydro-2H-pyrido[3,4-b]indol-2-yl)-2-fluoro-2-methylpropan-1-ol]	0.033
C[C@H](CN1[C@H](c2c(F)cc(NC3CN(CCCF)C3)cc2F)c2[nH]c3ccccc3c2C[C@H]1C)C(=O)O [Example 354, (2R)-3-[(1R,3R)-1-[2,6-difluoro-4-[[1-(3-fluoropropyl)azetidin-3-yl]amino]phenyl]-3-methyl-1,3,4,9-tetrahydropyrido[3,4-b]indol-2-yl]-2-methyl-propanoic acid]	1
C[C@H]1Cc2c([nH]c3ccc(F)cc23)[C@H](c2c(F)cc(OCCN3CC(CF)C3)cc2F)N1CC(F)(F)F [Example 355, (1S,3S)-1-(2,6-difluoro-4-(2-(3-(fluoromethyl)azetidin-1-yl)ethoxy)phenyl)-6-fluoro-3-methyl-2-(2,2,2-trifluoroethyl)-2,3,4,9-tetrahydro-1H-pyrido[3,4-b]indole]	29.2
C[C@@H]1Cc2c([nH]c3ccc(F)cc23)[C@@H](c2c(F)cc(OCCN3CC(CF)C3)cc2F)N1CC(F)(F)F [Example 356, (1R,3R)-1-(2,6-difluoro-4-(2-(3-(fluoromethyl)azetidin-1-yl)ethoxy)phenyl)-6-fluoro-3-methyl-2-(2,2,2-trifluoroethyl)-2,3,4,9-tetrahydro-1H-pyrido[3,4-b]indole]	0.509
C[C@H]1Cc2c([nH]c3ccc(F)cc23)[C@H](c2c(F)cc(OC3CN(CCCF)C3)cc2F)N1CC(F)(F)F [Example 357, (1S,3S)-1-(2,6-difluoro-4-((1-(3-fluoropropyl)azetidin-3-yl)oxy)phenyl)-6-fluoro-3-methyl-2-(2,2,2-trifluoroethyl)-2,3,4,9-tetrahydro-1H-pyrido[3,4-b]indole]	26.1
C[C@@H]1Cc2c([nH]c3ccc(F)cc23)[C@@H](c2c(F)cc(OC3CN(CCCF)C3)cc2F)N1CC(F)(F)F [Example 358, (1R,3R)-1-(2,6-difluoro-4-((1-(3-fluoropropyl)azetidin-3-yl)oxy)phenyl)-6-fluoro-3-methyl-2-(2,2,2-trifluoroethyl)-2,3,4,9-tetrahydro-1H-pyrido[3,4-b]indole]	0.417
C[C@@H]1Cc2c([nH]c3ccc(F)cc23)[C@@H](c2c(F)cc(OCCN3CC(CF)C3)cc2F)N1CC(F)(F)CO [Example 359, 3-((1R,3R)-1-(2,6-difluoro-4-(2-(3-(fluoromethyl)azetidin-1-yl)ethoxy)phenyl)-6-fluoro-3-methyl-1,3,4,9-tetrahydro-2H-pyrido[3,4-b]indol-2-yl)-2,2-difluoropropan-1-ol]	0.552
C[C@H]1Cc2c([nH]c3ccc(F)cc23)[C@H](c2c(F)cc(OCCN3CC(CF)C3)cc2F)N1CC(F)(F)CO [Example 360, 3-((1S,3S)-1-(2,6-difluoro-4-(2-(3-(fluoromethyl)azetidin-1-yl)ethoxy)phenyl)-6-fluoro-3-methyl-1,3,4,9-tetrahydro-2H-pyrido[3,4-b]indol-2-yl)-2,2-difluoropropan-1-ol]	9
C[C@@H]1Cc2c([nH]c3ccccc23)[C@@H](c2c(F)cc(OCCN3CC(CF)C3)cc2F)N1CCC(F)(F)F [Example 361, (1R,3R)-1-[2,6-difluoro-4-[2-[3-(fluoromethyl)azetidin-1-yl]ethoxy]phenyl]-3-methyl-2-(3,3,3-trifluoropropyl)-1,3,4,9-tetrahydropyrido[3,4-b]indole]	3
C[C@@H]1Cc2c([nH]c3ccccc23)[C@H](c2c(F)cc(OCCN3CC(CF)C3)cc2F)N1CCC(F)(F)F [Example 362, (1S,3R)-1-[2,6-difluoro-4-[2-[3-(fluoromethyl)azetidin-1-yl]ethoxy]phenyl]-3-methyl-2-(3,3,3-trifluoropropyl)-1,3,4,9-tetrahydropyrido[3,4-b]indole]	> 100
C[C@@H]1Cc2c([nH]c3ccc(F)cc23)[C@@H](c2c(F)cc(OC3CN(CCCF)C3)cc2F)N1CC(F)(F)CO [Example 363, 3-((1R,3R)-1-(2,6-difluoro-4-((1-(3-fluoropropyl)azetidin-3-yl)oxy)phenyl)-6-fluoro-3-methyl-1,3,4,9-tetrahydro-2H-pyrido[3,4-b]indol-2-yl)-2,2-difluoropropan-1-ol]	0.166
C[C@H]1Cc2c([nH]c3ccc(F)cc23)[C@H](c2c(F)cc(OC3CN(CCCF)C3)cc2F)N1CC(F)(F)CO [Example 364, 3-((1S,3S)-1-(2,6-difluoro-4-((1-(3-fluoropropyl)azetidin-3-yl)oxy)phenyl)-6-fluoro-3-methyl-1,3,4,9-tetrahydro-2H-pyrido[3,4-b]indol-2-yl)-2,2-difluoropropan-1-ol]	9
C[C@@H]1Cc2c([nH]c3ccccc23)[C@@H](c2c(F)cc(NC3CN(CCCF)C3)cc2F)N1C[C@H](C)C(=O)O [Example 367, (2S)-3-[(1R,3R)-1-[2,6-difluoro-4-[[1-(3-fluoropropyl)azetidin-3-yl]amino]phenyl]-3-methyl-1,3,4,9-tetrahydropyrido[3,4-b]indol-2-yl]-2-methyl-propanoic acid]	8
C[C@@H]1Cc2c([nH]c3ccc(F)cc23)[C@@H](c2c(F)cc(OC3CN(CCCF)C3)cc2F)N1C[C@](C)(F)CO [Example 368, 3-(1-{2,6-Difluoro-4-[1-(3-fluoro-propyl)-azetidin-3-yloxy]-phenyl}-6-fluoro-3-methyl-1,3,4,9-tetrahydro-beta-carbolin-2-yl)-2-fluoro-2-methyl-propan-1-ol]	0.546
C[C@H]1Cc2c([nH]c3ccc(F)cc23)[C@H](c2c(F)cc(OC3CN(CCCF)C3)cc2F)N1C[C@@](C)(F)CO [Example 369, 3-((1S,3S)-1-(2,6-difluoro-4-((1-(3-fluoropropyl)azetidin-3-yl)oxy)phenyl)-6-fluoro-3-methyl-1,3,4,9-tetrahydro-2H-pyrido[3,4-b]indol-2-yl)-2-fluoro-2-methylpropan-1-ol]	24
C[C@@H]1Cc2c([nH]c3ccc(F)cc23)[C@@H](c2c(F)cc(OC3CN(CCCF)C3)cc2F)N1C[C@@](C)(F)CO [Example 370, 3-((1R,3R)-1-(2,6-difluoro-4-((1-(3-fluoropropyl)azetidin-3-yl)oxy)phenyl)-6-fluoro-3-methyl-1,3,4,9-tetrahydro-2H-pyrido[3,4-b]indol-2-yl)-2-fluoro-2-methylpropan-1-ol]	0.203
C[C@H]1Cc2c([nH]c3ccc(F)cc23)[C@H](c2c(F)cc(OC3CN(CCCF)C3)cc2F)N1C[C@](C)(F)CO [Example 371, 3-((1S,3S)-1-(2,6-difluoro-4-((1-(3-fluoropropyl)azetidin-3-yl)oxy)phenyl)-6-fluoro-3-methyl-1,3,4,9-tetrahydro-2H-pyrido[3,4-b]indol-2-yl)-2-fluoro-2-methylpropan-1-ol]	9
C[C@@H]1Cc2c([nH]c3ccc(F)cc23)[C@@H](c2c(F)cc(NC3CN(CCCF)C3)cc2F)N1CC(F)(F)F [Example 372, N-(3,5-difluoro-4-((1R,3R)-6-fluoro-3-methyl-2-(2,2,2-trifluoroethyl)-2,3,4,9-tetrahydro-1H-pyrido[3,4-b]indol-1-yl)phenyl)-1-(3-fluoropropyl)azetidin-3-amine]	0.198
C[C@H]1Cc2c([nH]c3ccc(F)cc23)[C@H](c2c(F)cc(NC3CN(CCCF)C3)cc2F)N1CC(F)(F)F [Example 373, N-(3,5-difluoro-4-((1S,3S)-6-fluoro-3-methyl-2-(2,2,2-trifluoroethyl)-2,3,4,9-tetrahydro-1H-pyrido[3,4-b]indol-1-yl)phenyl)-1-(3-fluoropropyl)azetidin-3-amine]	18
C[C@@H]1Cc2c([nH]c3ccccc23)[C@@H](c2c(F)cc(OCCN3CC(CF)C3)cc2F)N1CC(C)(C)C(=O)O [Example 374, 3-((1R,3R)-1-(2,6-difluoro-4-(2-(3-(fluoromethyl)azetidin-1-yl)ethoxy)phenyl)-3-methyl-1,3,4,9-tetrahydro-2H-pyrido[3,4-b]indol-2-yl)-2,2-dimethylpropanoic acid]	1.55

Reference: US20250114338A1, “TETRAHYDRO-PYRIDO[3,4-b]INDOLE ESTROGEN RECEPTOR MODULATORS AND USES THEREOF” (Genentech, Inc., priority 2014, published 2025)
